Laboratory results from paper PMC4626104, “Inhibition on Proteasome β1 Subunit Might Contribute to the Anti-Cancer Effects of Fangchinoline in Human Prostate Cancer Cells” (PLoS ONE, 2015).

Tests used:
[1] = target: T1, purified human erythrocyte 20S proteasome (Homo sapiens, UniProt P28072); test: C-L activity of purified human 20S proteasome; type: biochemical
T1 construct: purchased Enzo Life Sciences, Inc; host or cells: human erythrocytes
Method: The 20S proteasome assay kit was bought from Enzo Life Sciences, Inc. (Farmingdale, NY 11735, USA). The Km, Vmax values of the purified human erythrocyte 20S proteasome for fluorigenic peptide substrate Z-LLE-AMC are measured according to the instructions provided by the manufacturer. Inactivation of purified human erythrocyte 20S proteasome by fangchinoline was determined by monitoring the hydrolysis of substrate in the presence of different concentrations of fangcinoline. Assays were performed at 37°C in a reaction buffer (50 μL) containing 50 mM Tris/HCL, pH 7.5, 25 mM KCL, 10 mM NaCL, 1 mM MgCL2, 0.1 μg 20S proteasome and Z-LLE-AMC. Reactions were allowed to proceed for 120 min, and fluorescence data were collected every 1 min, and then plotted as a function of time. The apparent dissociation constant, Ki ^app, was determined by non-linear least-fit of the fractional velocity, vi/v0, as a function of [I], where vi is the steady state residual activity of the enzyme in the presence of inhibitor (I) and v0 is the initial velocity in the absence of inhibitor ( Vi/V0=1/1+[I]/Kiapp ). The dissociation constant, Ki, was calculated from the apparent dissociation constant, Ki ^app, using the following expression, where [S] is the substrate concentration and Km is the substrate binding constant ( Ki=Kiapp/1+[S]/Km ).

[2] = target: T2, recombinant human proteasome β1 subunit (Homo sapiens, UniProt P28072); test: Surface plasmon resonance (Biacore) binding assay; settings: Biacore, 25°C, 1:1 Langmuir model
T2 construct: His-Tag; made in house; host or cells: Escherichia coli
T2 sequence (P28072 1-239): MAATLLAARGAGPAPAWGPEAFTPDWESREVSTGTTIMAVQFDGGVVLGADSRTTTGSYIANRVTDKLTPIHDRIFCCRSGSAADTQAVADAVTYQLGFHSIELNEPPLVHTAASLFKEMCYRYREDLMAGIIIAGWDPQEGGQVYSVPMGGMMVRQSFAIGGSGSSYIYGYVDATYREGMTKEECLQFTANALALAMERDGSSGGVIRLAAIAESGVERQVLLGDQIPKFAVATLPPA
Method: The recombinant human proteasome β1 subunit, product of PSMB6 gene, was expressed as His-Tag proteins using Escherichia coli, and then purified by affinity chromatography as reported in our previous study. The binding affinities of fangchinoline or tetrandrine to recombinant proteasome catalytic β1 subunit, were assayed in vitro using an Biacore 3000 instrument (Biacore AB, Rapsgatan 7, S-754 50 Uppsala, Sweden) as reported before. Briefly, recombinant proteasome β1 subunit protein was immobilized on a CM5 sensor chip as ligand in 11624.5 RU with N-ethyl-N’-(3-dimethylaminopropyl) carbodiimide and N-hydroxysuccinimide according to the standard primary amine-coupling procedures, and HBS-EP (10 mM HEPES, 150 mM NaCl, 3 mM EDTA, 0.005% (v/v) surfactant P20, pH 7.4) was used as the running buffer. Equilibration of the baseline was performed by a continuous flow of HBS-EP through the chip surface for 1 to 2 h. Biacore data were collected at 25°C with HBS-EP as the running buffer at a constant flow of 20 μL/min. Fangchinoline or tetradrine was serially diluted into the running buffer to 0, 2.4, 3.43, 4.90, 7.0, 10 and 20 μM. The samples were injected into the channels at a flow rate of 20 μL/min, followed by washing with the running buffer. The binding responses were recorded continuously in response units (RU) at a frequency of 1Hz as sensorgrams and presented as a function of time. The association (k a) and dissociation (k d) rate constants, the equilibrium dissociation constant ( KD=kd/ka ) were determined by analysis of the sensorgram-curves obtained at different concentrations of the compound by use of BIA evaluation software version 3.1 (Biacore) and the 1:1 Langmuir binding fitting model.

In the case of COc1ccc2cc1Oc1ccc(cc1)C[C@H]1c3cc(c(OC)cc3CCN1C)Oc1c(O)c(OC)cc3c1[C@H](C2)N(C)CC3 [fangchinoline], the “Hydrolysis of substrate Z-LLE-AMC by 20S proteasome” value ([1]; 500 μM fangchinoline, 75 μM Z-LLE-AMC) is reported as “partly inhibited”, the Ki ([1]; substrate Z-LLE-AMC, 37°C) is reported as 357 ± 30.6 µM and the “Dissociation (k d)” value [2] is reported as 0.0353 S^-1. The Kd ([2]; read-out: Equilibrium dissociation (K D)) was 4.68 µM and the kon ([2]; pH 7.4, read-out: Association (k a)) was 7550 M⁻¹ s⁻¹.
